Patent US20060252766A1, “Methods using a combination of 3-heteroaryl-2-indolinone and a cyclooxygenase-2 inhibitor for the treatment of neoplasia” (PFIZER INC, priority 2002, published 2006)
Where “and” joins values, the source holds several entries; their conditions need not be identical. Equal values may be shown once. Read-outs that look alike come from different tables or passages of the source.

What was measured:
[1] = system: PDGFR; assay: PDGF-induced BrdU incorporation assay in 3T3/EGFR cells; assay type: cell-based; details: Mitogenesis in 3T3/EGFR cells, read-out: PDGFR PDGF Ligand IC50
Experimental: Protocol • (1) 3T3 engineered cell line: 3T3/EGFRc7. • (2) Cells are seeded at 8000 cells/well in DMEM, 10% CS, 2 mM Gin in a 96 well plate. […] The negative control wells receive serum free DMEM with 0.1% BSA only; the positive control cells receive the ligand (PDGF) but no test compound. […] FixDenat solution is added (50 μl/well) and the plates are incubated at room temperature for 45 minutes on a plate shaker. • (7) The FixDenat solution is thoroughly removed by decanting and tapping the inverted plate on a paper towel. Milk is added (5% dehydrated milk in PBS, 200 μl/well) as a blocking solution and the plate is incubated for 30 minutes at room temperature on a plate shaker. • (8) The blocking solution is removed by decanting and the wells are washed once with PBS. Anti-BrdU-POD solution (1:100 dilution in PBS, 1% BSA) is added (100 μl/well) and the plate is incubated for 90 minutes at room temperature on a plate shaker. • (9) The antibody conjugate is thoroughly removed by decanting and rinsing the wells 5 times with PBS, and the plate is dried by inverting and tapping on a paper towel. • (10) TMB substrate solution is added (100 μl/well) and incubated for 20 minutes at room temperature on a plate shaker until color development is sufficient for photometric detection. • (11) The absorbance of the samples is measured at 410 nm (in “dual wavelength” mode with a filter reading at 490 nm, as a reference wavelength) on a Dynatech ELISA plate reader.

[2] = molecular target: FGFR (Mus musculus, UniProt P16092); assay: FGF ligand BrdU incorporation in 3T3/EGFR cells; assay type: cell-based; details: Mitogenesis in 3T3/EGFR cells
Chain of FGFR (P16092 22-822, change not shown): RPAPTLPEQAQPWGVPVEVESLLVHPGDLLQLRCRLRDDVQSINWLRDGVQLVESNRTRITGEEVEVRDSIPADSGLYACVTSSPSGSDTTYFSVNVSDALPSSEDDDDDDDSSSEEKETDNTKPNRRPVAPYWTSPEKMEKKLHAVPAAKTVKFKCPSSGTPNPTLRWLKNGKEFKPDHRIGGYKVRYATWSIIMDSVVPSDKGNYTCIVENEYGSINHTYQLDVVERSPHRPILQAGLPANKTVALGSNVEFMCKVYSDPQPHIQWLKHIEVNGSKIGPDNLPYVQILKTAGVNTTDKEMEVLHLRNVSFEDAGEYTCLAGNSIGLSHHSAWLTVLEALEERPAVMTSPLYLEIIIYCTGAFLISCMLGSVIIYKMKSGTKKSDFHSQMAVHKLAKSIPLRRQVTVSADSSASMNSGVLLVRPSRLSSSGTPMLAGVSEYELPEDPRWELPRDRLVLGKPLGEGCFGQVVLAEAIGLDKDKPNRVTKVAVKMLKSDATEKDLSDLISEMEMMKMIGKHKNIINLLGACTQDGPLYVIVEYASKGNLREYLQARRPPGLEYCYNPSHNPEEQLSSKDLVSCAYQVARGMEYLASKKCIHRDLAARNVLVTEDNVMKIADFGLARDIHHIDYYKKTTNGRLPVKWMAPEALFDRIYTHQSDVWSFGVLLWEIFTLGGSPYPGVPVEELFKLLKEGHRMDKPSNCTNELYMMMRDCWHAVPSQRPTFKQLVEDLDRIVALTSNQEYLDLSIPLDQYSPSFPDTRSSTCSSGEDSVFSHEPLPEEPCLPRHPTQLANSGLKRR

[3] = molecular target: PDGFR (Homo sapiens, UniProt P09619); assay: PDGF-R ELISA
Chain of PDGFR (Homo sapiens, UniProt P09619) (P09619 33-1106): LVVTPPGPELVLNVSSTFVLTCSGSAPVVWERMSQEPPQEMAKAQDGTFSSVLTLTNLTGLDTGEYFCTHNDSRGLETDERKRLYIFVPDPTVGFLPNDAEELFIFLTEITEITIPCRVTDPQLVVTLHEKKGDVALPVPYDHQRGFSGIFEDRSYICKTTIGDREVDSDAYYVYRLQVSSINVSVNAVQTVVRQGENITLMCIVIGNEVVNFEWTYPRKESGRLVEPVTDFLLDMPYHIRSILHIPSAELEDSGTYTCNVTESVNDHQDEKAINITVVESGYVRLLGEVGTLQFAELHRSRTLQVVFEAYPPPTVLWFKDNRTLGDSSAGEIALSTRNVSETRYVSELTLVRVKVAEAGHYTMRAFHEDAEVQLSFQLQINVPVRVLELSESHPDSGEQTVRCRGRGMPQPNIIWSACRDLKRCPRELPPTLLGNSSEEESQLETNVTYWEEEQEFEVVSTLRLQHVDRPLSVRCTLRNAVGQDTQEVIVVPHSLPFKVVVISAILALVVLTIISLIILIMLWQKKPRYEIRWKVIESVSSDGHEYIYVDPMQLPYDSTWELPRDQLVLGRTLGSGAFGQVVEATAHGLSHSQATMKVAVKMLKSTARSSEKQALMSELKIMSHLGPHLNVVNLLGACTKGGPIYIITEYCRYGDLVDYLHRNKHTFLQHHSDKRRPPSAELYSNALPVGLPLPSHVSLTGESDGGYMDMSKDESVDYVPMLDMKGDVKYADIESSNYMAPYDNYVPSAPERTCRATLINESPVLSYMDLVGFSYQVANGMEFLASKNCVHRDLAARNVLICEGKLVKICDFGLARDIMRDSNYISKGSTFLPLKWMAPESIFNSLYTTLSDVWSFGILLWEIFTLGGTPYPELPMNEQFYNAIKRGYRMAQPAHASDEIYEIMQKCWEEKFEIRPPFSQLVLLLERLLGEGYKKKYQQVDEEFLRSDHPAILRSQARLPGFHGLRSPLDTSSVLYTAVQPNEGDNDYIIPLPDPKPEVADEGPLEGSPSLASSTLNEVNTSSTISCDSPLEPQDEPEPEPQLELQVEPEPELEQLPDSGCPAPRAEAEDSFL
Experimental: All cell culture media, glutamine, and fetal bovine serum were purchased from Gibco Life Technologies (Grand Island, N.Y.) unless otherwise specified. […] All cell lines were routinely subcultured twice a week and were negative for mycoplasma as determined by the Mycotect method (Gibco).
For ELISA assays, cells (U1242, obtained from Joseph Schlessinger, NYU) were grown to 80-90% confluency in growth medium (MEM with 10% FBS, NEAA, 1 mM NaPyr and 2 mM GLN) and seeded in 96-well tissue culture plates in 0.5% serum at 25,000 to 30,000 cells per well. […] Lysates were incubated with shaking for 1 hour at room temperature. The plates were washed with TBST four times and then incubated with polyclonal anti-phosphotyrosine antibody at room temperature for 30 minutes. Excess anti-phosphotyrosine antibody was removed by rinsing the plate with TBST four times. Goat anti-rabbit IgG antibody was added to the ELISA plate for 30 min at room temperature followed by rinsing with TBST four more times. […] Absorbance at 410 nm with a reference wavelength of 630 nm was recorded about 15 to 30 min after ABTS addition.

[4] = system: 1483 human head and neck squamous cell carcinoma (HNSCC) xenograft; assay: HN1483 tumor model: paw tumor volume of treated mice; assay type: in vivo, nude mice; details: for Tumor vol. Average: group average; for Paw volume, paw / Tumor vol.: individual mice
[5] = SU-5416/50 mgkd, Day 17 Mar. 16, 2001
[6] = SU-5416/50 mgkd, Day 21 Mar. 20, 2001
[7] = SU-5416/50 mgkd, Day 24 Mar. 23, 2001
[8] = SU-5416/50 mgkd, Day 31 Apr. 2, 2001
[9] = SU-5416/50 mgkd, Day 31 Mar. 30, 2001

## CN(C)c1ccc(C=C2C(=O)Nc3ccc(Cl)cc32)cc1 [SU4967, 5-Chloro-3-(4-dimethylaminobenzylidenyl)-2-indolinone]
[1]
  IC50: 9 µM
[2]
  IC50: 4.9 µM
[3]
  IC50: 7.9 µM

## O=C1Nc2ccccc2C1=Cc1ccc(N2CCOCC2)cc1 [SU4981, 3-[4-(Morpholin-4-yl)benzylidenyl]-2-indolinone]
[1]
  IC50: 3 µM
[2]
  IC50: 10 µM
[3]
  IC50: 33.1 µM

## Cc1c(CCC(=O)O)c[nH]c1C=C1C(=O)Nc2ccccc21 [SU5402, 3-[(3-(2-carboxyethyl)-4-methylpyrrol-5-yl)methylene]-2-indolinone]
[1]
  IC50: 50 µM
[2]
  IC50: 40 µM

## Cc1c[nH]c(C=C2C(=O)Nc3ccccc32)c1C [SU5406, 3-[(3,4-Dimethylpyrrol-2-yl)methylene]-2-indolinone]
[1]
  IC50: 5.2 µM

## COC(=O)CCc1c(C)c[nH]c1C=C1C(=O)Nc2ccccc21 [SU5407, 3-{[4-(2-methoxycarbonylethyl)-3-methylpyrrol-5-yl]methylene}-2-indolinone]
[3]
  IC50: 53.7 µM

## Cc1cc(C)c(C=C2C(=O)Nc3ccccc32)[nH]1 [SU5416, 3-[(2,4-Dimethylpyrrol-5-yl)methylene]-2-indolinone]
[4]; SU5416 25 mg/kg/day s.c. group, Day 7 Mar. 3, 2001 (before start of dosing)
  Tumor vol. Average: 0.14
[4]; SU5416 25 mg/kg/day s.c. group, Day 7 Mar. 3, 2001 (before start of dosing), 25 mg/kg/day
  Paw volume, paw: 0.26 (3×) and 0.28 and 0.27 (2×) and 0.24 and 0.23
[4]; SU5416 25 mg/kg/day s.c. group, Day 7 Mar. 3, 2001 (before start of dosing), paw minus 0.10, 25 mg/kg/day
  Tumor vol.: 0.16 (2×) and 0.17 (3×) and 0.18 and 0.14 and 0.13
[4]; SU5416 25 mg/kg/day s.c., Day 14 Mar. 13, 2001
  Tumor vol. Average: 0.18
[4]; SU5416 25 mg/kg/day s.c., Day 14 Mar. 13, 2001, 25 mg/kg/day
  Paw volume, paw: 0.29 (3×) and 0.28 (2×) and 0.27 and 0.26 and 0.24
[4]; SU5416 25 mg/kg/day s.c., Day 14 Mar. 13, 2001, paw minus BKG. 0.10, 25 mg/kg/day
  Tumor vol.: 0.19 (3×) and 0.18 and 0.17 and 0.16 (2×) and 0.14
[4]; SU5416 25 mg/kg/day s.c., Day 17 Mar. 16, 2001
  Tumor vol. Average: 0.21
[4]; SU5416 25 mg/kg/day s.c., Day 17 Mar. 16, 2001, 25 mg/kg/day
  Paw volume, paw: 0.37 (2×) and 0.33 and 0.29 and 0.28 (2×) and 0.36 and 0.23
[4]; SU5416 25 mg/kg/day s.c., Day 17 Mar. 16, 2001, paw minus BKG. 0.10, 25 mg/kg/day
  Tumor vol.: 0.27 (2×) and 0.23 and 0.19 and 0.18 (2×) and 0.26 and 0.13
[4]; SU5416 25 mg/kg/day s.c., Day 21 Mar. 20, 2001
  Tumor vol. Average: 0.34
[4]; SU5416 25 mg/kg/day s.c., Day 21 Mar. 20, 2001, 25 mg/kg/day
  Paw volume, paw: 0.55 and 0.49 and 0.37 and 0.34 and 0.4 and 0.58 and 0.56 and 0.24
[4]; SU5416 25 mg/kg/day s.c., Day 21 Mar. 20, 2001, paw minus BKG. 0.10, 25 mg/kg/day
  Tumor vol.: 0.45 and 0.39 and 0.27 and 0.24 and 0.30 and 0.48 and 0.46 and 0.14
[4]; SU5416 25 mg/kg/day s.c., Day 24 Mar. 23, 2001
  Tumor vol. Average: 0.39
[4]; SU5416 25 mg/kg/day s.c., Day 24 Mar. 23, 2001, 25 mg/kg/day
  Paw volume, paw: 0.59 and 0.8 and 0.37 and 0.4 and 0.49 and 0.65 and 0.61 and 0.22
[4]; SU5416 25 mg/kg/day s.c., Day 24 Mar. 23, 2001, paw minus BKG. 0.10, 25 mg/kg/day
  Tumor vol.: 0.49 and 0.50 and 0.27 and 0.30 (2×) and 0.55 and 0.51 and 0.12
[4]; SU5416 25 mg/kg/day s.c., Day 31 Apr. 2, 2001
  Tumor vol. Average: 0.87
[4]; SU5416 25 mg/kg/day s.c., Day 31 Apr. 2, 2001, 25 mg/kg/day
  Paw volume, paw: 0.82 and 0.79 and 0.57 and 0.6 and 0.66 and 0.98 and 0.75 and 0.21
[4]; SU5416 25 mg/kg/day s.c., Day 31 Apr. 2, 2001, paw minus BKG. 0.10, 25 mg/kg/day
  Tumor vol.: 0.72 and 0.69 and 0.47 and 0.50 and 0.56 and 0.68 and 0.65 and 0.11
[4]; SU5416 25 mg/kg/day s.c., Day 31 Mar. 30, 2001
  Tumor vol. Average: 0.56
[4]; SU5416 25 mg/kg/day s.c., Day 31 Mar. 30, 2001, 25 mg/kg/day
  Paw volume, paw: 0.84 and 0.5 and 0.71 and 0.23 and 0.73 and 0.81 and 0.54 and 0.56
[4]; SU5416 25 mg/kg/day s.c., Day 31 Mar. 30, 2001, paw minus BKG. 0.10, 25 mg/kg/day
  Tumor vol.: 0.74 and 0.70 and 0.61 and 0.13 and 0.63 and 0.71 and 0.44 and 0.46
[4]; SU5416 25 mg/kg/day s.c., Start dosing Day 10 Mar. 9, 2001
  Tumor vol. Average: 0.16
[4]; SU5416 25 mg/kg/day s.c., Start dosing Day 10 Mar. 9, 2001, 25 mg/kg/day
  Paw volume, paw: 0.3 and 0.25 and 0.23 and 0.26 and 0.27 and 0.29 and 0.24 (2×)
[4]; SU5416 25 mg/kg/day s.c., Start dosing Day 10 Mar. 9, 2001, paw minus BKG. 0.10, 25 mg/kg/day
  Tumor vol.: 0.20 and 0.15 and 0.13 and 0.10 and 0.17 and 0.19 and 0.14 (2×)
[4]; SU-5416/50 mgkd, Day 14 Mar. 13, 2001
  Paw volume, paw: 0.29 and 0.22 and 0.32 and 0.27 (2×) and 0.24 and 0.26 and 0.21
[4]; [5]
  Tumor vol. Average: 0.19
  Paw volume, paw: 0.24 and 0.27 and 0.2 and 0.3 and 0.32 and 0.22 and 0.39 and 0.34
[4]; SU-5416/50 mgkd, Day 17 Mar. 16, 2001, paw minus BKG. 0.10
  Tumor vol.: 0.14 and 0.17 and 0.10 and 0.20 and 0.22 and 0.12 and 0.29 and 0.24
[4]; [6]
  Tumor vol. Average: 0.27
  Paw volume, paw: 0.27 and 0.36 and 0.19 and 0.31 and 0.44 and 0.22 and 0.63 and 0.48
[4]; SU-5416/50 mgkd, Day 21 Mar. 20, 2001, paw minus BKG. 0.10
  Tumor vol.: 0.17 and 0.28 and 0.09 and 0.21 and 0.34 and 0.12 and 0.53 and 0.38
[4]; [7]
  Tumor vol. Average: 0.30
  Paw volume, paw: 0.25 and 0.46 and 0.19 and 0.28
[4]; SU-5416/50 mgkd, Day 24 Mar. 23, 2001, paw minus BKG. 0.10
  Tumor vol.: 0.15 and 0.36 and 0.09 and 0.18 and 0.42 and 0.08 and 0.64
[4]; [8]
  Tumor vol. Average: 0.34
  Paw volume, paw: 0.18 and 0.53 and 0.15 and 0.25
[4]; SU-5416/50 mgkd, Day 31 Apr. 2, 2001, paw minus BKG. 0.10
  Tumor vol.: 0.08 (2×) and 0.43 and 0.05 and 0.15 and 0.59
[4]; [9]
  Tumor vol. Average: 0.36
  Paw volume, paw: 0.24 and 0.6 and 0.18 and 0.21
[4]; SU-5416/50 mgkd, Day 31 Mar. 30, 2001, paw minus BKG. 0.10
  Tumor vol.: 0.14 (2×) and 0.50 and 0.08 and 0.11 and 0.73 and 0.62
Group 2, SU5416 25 mg/kg/day s.c., Day 0 (day of injection), 25 mg/kg/day
  body wt, individual mouse: 31.93
Group 2, SU5416 25 mg/kg/day s.c., Day 7, 25 mg/kg/day
  body wt, individual mouse: 32.41 and 25.96
Group 2, SU5416 25 mg/kg/day s.c., Day 10, 25 mg/kg/day
  body wt, individual mouse: 32.36 and 25.96 and 31
Group 2, SU5416 25 mg/kg/day s.c., Day 14, 25 mg/kg/day
  body wt, individual mouse: 28.02 and 32.11 and 23.91 and 21.18
Group 2, SU5416 25 mg/kg/day s.c., Day 17, 25 mg/kg/day
  body wt, individual mouse: 28.98 and 18.97
Group 2, SU5416 25 mg/kg/day s.c., Day 21, 25 mg/kg/day
  body wt, individual mouse: 22.29 and 18.32
Group 2, SU5416 25 mg/kg/day s.c., Day 24, 25 mg/kg/day
  body wt, individual mouse: 24.83 and 21.3 and 22.29 and 22.93 and 18.15 and 29.02
Group 2, SU5416 25 mg/kg/day s.c., Day 31, 25 mg/kg/day
  body wt, individual mouse: 23.86 and 17.88 and 20.51
Group 2, SU5416 25 mg/kg/day s.c., Day 35, 25 mg/kg/day
  body wt, individual mouse: 21.74 and 22.95 and 18.42
Group 5, SU-5416 50 mpkd, Day 0 (day of injection)
  body wt, individual mouse: 26.04
Group 5, SU-5416 50 mpkd, Day 7
  body wt, individual mouse: 29.04
Group 5, SU-5416 50 mpkd, Day 21
  body wt, individual mouse: 25.96 and 24.96
Group 5, SU-5416 50 mpkd, Day 24
  body wt, individual mouse: 22.85 and 24.01 and 24.79
Group 5, SU-5416 50 mpkd, Day 31
  body wt, individual mouse: 26.03

## CCc1ccc(C=C2C(=O)Nc3ccccc32)s1 [SU5451, 3-[(2-Ethylthien-5-yl)methylene]-2-indolinone]
[1]
  IC50: 30 µM
[2]
  IC50: 16 µM

## CCc1c(C=C2C(=O)Nc3ccccc32)[nH]c(C)c1C [SU5453, 3-[(4,5-Dimethyl-3-ethylpyrrol-2-yl)methylene]-2-indolinone]
[3]
  IC50: 65.5 µM

## CCOC(=O)CCc1c(C=C2C(=O)Nc3ccccc32)[nH]c(C(=O)OCC)c1CC(=O)OCC [SU5465, 3-[(5-Ethoxycarbonyl-3-ethoxycarbonylethyl-4-ethoxylcarbonylmethylpyrrol-2-yl)methylene]-2-indolinone]
[1]
  IC50: 40 µM
[2]
  IC50: 25 µM

## Cc1cnc(C=C2C(=O)Nc3ccccc32)[nH]1 [SU5468, 3-[(5-Methylimidazol-2-yl)methylene]-2-indolinone]
[1]
  IC50: 8 µM
[3]
  IC50: 55.9 µM

## Cc1cnc(C=C2C(=O)Nc3ccccc32)s1 [SU5469, 3-[(5-Methylthiazol-2-yl)methylene]-2-indolinone]
[1]
  IC50: 4 µM
[2]
  IC50: 15 µM

## O=C1Nc2ccccc2C1=Cc1c(Br)cnn1Cc1ccc(Cl)cc1 [SU5475, 3-[(4-Bromo-1-(4-chlorobenzyl)pyrazol-5-yl)methylene]-2-indolinone]
[1]
  IC50: 6.5 µM
[2]
  IC50: 9 µM
